Experimental data reported in US8858968B2, “Use of tyrosine-arginine dipeptide and niacinamide as substance P antagonist” (L'Oreal, priority 2005, dated 2014).
Ends that are not written are not given here.

Assays:
[1] = tested on: human skin kept under survival conditions; test: Histological evaluation of the average surface area of the capillaries in human skin kept under survival conditions, stimulated with substance P; assay type: cell-based; conditions: for Percentage of dilated dermal capillaries: substance P 10 μM in culture medium, niacinamide 0.5%, dipeptide 0.1% (b140 prints the reverse), mean +/− spread; for effect on surface area / dilatation of the dermal capillaries (in words): compared with substance P-treated skin and control skin
Experimental: The activity of each of the active agents and of the combination thereof is evaluated in a model of human skin kept under survival conditions. After several hours of re-equilibration of the skin with culture medium (antibiotic+SVF), the culture medium is renewed and substance P at 10 (M, with or without each of the active agents or the combination thereof, is (are) added to the culture medium. […] Morphometric analysis of the surface area (μm^2) occupied by the lumen of the vessels is carried out by microscopic observation from sections: the skin fragments are fixed in Bouin's solution and embedded in paraffin and then stained with haemalun-eosine. The vascular dilatation is evaluated by counting the number of dilated vessels over the entire histological section (16 fields at 40×magnification). This analysis makes it possible to determine the average surface area (μm^2) occupied by the vessels in the dermis.

[2] = tested on: human skin kept under survival conditions; test: Histological evaluation of dermal oedema (semi-quantitative score) on the skin sections of Example 1; assay type: cell-based; conditions: for Dermal oedema score (0-3): human skin explant, substance P 10 μM, niacinamide 0.5%, dipeptide 0.1% (b140 prints the reverse), mean +/− spread; for effect on dermal oedema (in words): compared with substance P-stimulated skin and control skin
Experimental: The activity of each of the active agents and of the combination thereof is evaluated in a model of human skin kept under survival conditions. […] Using the sections prepared in Example 1, the oedema is evaluated by means of semi-quantitative scores: • score 0: no oedema • score 1: very slight oedema • score 2: moderate oedema • score 3: considerable oedema

| Compound | Percentage of dilated dermal capillaries ([1]; human skin explant) | increase in the surface area compared with the normal skin ([1]; substance P at 10 μM) | average surface area occupied by the vessels in the dermis ([1]; substance P at 10 μM, human skin explant) | Dermal oedema score (0-3) [2] | increase in the oedema score ([2]; treatment with substance P versus control skin) | oedema score ([2]; treatment with substance P, score 0-3) | effect on surface area / dilatation of the dermal capillaries (in words) [1] | effect on dermal oedema (in words) [2] |
| --- | --- | --- | --- | --- | --- | --- | --- | --- |
| substance P: polypeptide (undecapeptide) produced and released by a nerve ending; used at 10 μM as stimulus (RPKPQQFFGLM; ends and bridges not checked; UniProt P20366 58-68, looked up) | 161.6 +/− 56.6 | 63% | 161.6+/−56.6 μm^2 | 1.9 +/− 0.7 | 121% | 1.9+/−0.64 |  |  |
| NC(=O)c1cccnc1 [niacinamide, pyridine-3-carboxamide] | 108 +/− 27.6 |  |  | 1.03 +/− 0.64 |  |  | back to a state corresponding to the control | back to a state corresponding to the control |
| N-acetyl-tyrosine-arginine-decahexyl ester [dipeptide] | 103.16 +/− 34 |  |  | 1 +/− 0.6 |  |  | back to a state corresponding to the control | back to a state corresponding to the control |
